Experimental data published in patent US7572831B2, “Composition containing chalcone” (Angiolab, Inc., priority 2002, dated 2009).

What was measured:
[1] = biological target: T1, MMP-1 (Homo sapiens, UniProt P03956); experiment: MMP-1 spectrofluorometric enzyme activity assay; assay type: biochemical; details: 50 μM compound; read-out: MMP-1 activity inhibited
T1 construct: made in house; host or cells: Sf21 insect cells, baculovirus (pBlueBac4.5)
T1 sequence (P03956 100-469): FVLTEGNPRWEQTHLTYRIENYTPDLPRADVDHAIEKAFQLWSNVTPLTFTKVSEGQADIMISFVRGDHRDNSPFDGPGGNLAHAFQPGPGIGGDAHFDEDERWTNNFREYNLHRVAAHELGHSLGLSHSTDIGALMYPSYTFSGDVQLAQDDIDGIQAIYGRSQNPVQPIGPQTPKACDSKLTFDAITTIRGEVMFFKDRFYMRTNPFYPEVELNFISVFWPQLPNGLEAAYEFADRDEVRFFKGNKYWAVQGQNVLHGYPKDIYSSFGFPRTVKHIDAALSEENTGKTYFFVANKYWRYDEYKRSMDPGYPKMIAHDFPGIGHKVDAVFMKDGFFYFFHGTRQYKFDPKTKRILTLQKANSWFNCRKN
Procedure: MMP-1, MMP-2, MMP-9 and MMP-13 were cloned and prepared from insect cells (Sf21 insect cell) by using a Baculovirus system.
Each cDNA for corresponding MMPs was cloned to a pBlueBac4.5 transfer vector (Invitrogen, Cat no. V1995-20), and then transfected to Sf21 cells with a Bac-N-Blue Transfection Kit (Invitrogen, Cat no. K855-01). Sf21 cells were incubated with a TNM-FH (Sigma, St. Louis, Mo., U.S.A) media containing 10% fetal bovine serum at 27° C., then harvested and re-suspended at a concentration of 10^7 cell/Ml. The cell suspension was incubated with a virus containing the cloned gene for 1 hr at room temperature. Infected Sf21 cells were grown for 72 hrs and the medium was recovered, and the MMP was purified. MMP-2 (GENEBANK No. XM—048244) and MMP-9 (GENEBANK No. XM—009491) were recovered from a gelatin-sepharose affinity column (Sigma, G5384) by eluting with 5% DMSO-containing buffer. […]
As a control, 2 Ml of reaction buffer (50 mM Tricine, pH 7.5, 10 mM CaCl2, 200 mM NaCl) comprising DMSO, 10 nM of enzyme and 10 μM of substrate was prepared in a cuvette. Fluorescence intensity was measured for 5-10 min at room temperature with a spectrofluorometer.
50 μM Chalcone or its derivatives were added to a reaction buffer containing a substrate and enzyme, and fluorescence intensity was measured in the same manner.

[2] = tested on: rat aortic rings; experiment: Rat aortic ring angiogenesis assay; assay type: cell-based, Sprague Dawley rats; details: day 10; for Microvessel density: control 19.5±1.8
Text: The effect of chalcone or its derivatives on angiogenesis was studied by culturing aortic explants in three-dimensional matrix gels according to the procedure of Kruger and Figg (Clinical Cancer Research 7:1867-1872, 2001). Thoracic aortas were excised from 8-week-old male Sprague Dawley rats and the fibroadipose tissue was removed. The aortas were sectioned into 1-mm-long cross-sections, rinsed with Human Endothelial-SFM (GIBCO), placed on the Matrigel-coated wells, covered with additional 50 ul Matrigel, and allowed to gel for more than 30 min at 37° C., 5% CO2. All the rings were cultured in Human Endothelial-SFM (GIBCO) supplemented with 200 ug/ml of ECGS (Endothelial Cell Growth Supplement, Sigma) as an angiogenesis inducer. Chalcone diluted with ethanol was added to the culture medium at final concentrations of 1 uM and 100 uM. 1% of ethanol only was added to the culture medium as a vehicle control. All assays were performed by using 5 aortic rings per sample. Aortic rings were photographed on day 10. The area of angiogenic sprouting was calculated using Image-Pro Plus software program (Media Cybernetics). Microvessel densities are reported in percent area.

[3] = tested on: TPA-induced ear edema; experiment: TPA-induced ear edema model; assay type: in vivo, ICR mouse
Procedure: To observe the anti-inflammatory effects of chalcone or its derivatives edema was induced in the ear by topical application of 10 ul of TPA (Tetradecanoylphorbol acetate) in acetone (2.5 ug/ear) to both the inner and outer surface of one ear of each 6-week-old ICR mouse. 5% of Chalcone or its derivatives diluted with acetone were applied separately to each ear topically immediately after TPA. The reference drug, indomethacin (0.5 mg/ear), was administered as a positive control. Ear thickness was measured before and 4 hours after treatment with the irritant using a micrometer (Mitutoyo Co.). Ear thickness was expressed as the mean of the difference between thickness before and after challenge. Inhibition ratio percentage of edema was expressed as the reduction in thickness with respect to the control treated only with TPA. As shown in FIG. 6 and Table 2, chalcone or its derivatives suppressed the TPA-induced ear edema.

`O=C(/C=C/c1ccccc1)c1ccccc1` [Chalcone] gave an inhibition at 50 µM [1] of about 75%, a Microvessel density ([2]; 1 uM) of 18.5±1.2 percent area and a Microvessel density ([2]; 100 uM) of 1.7±0.1 percent area. For the same compound, the inhibition at 1 µM ([2]; Rattus norvegicus, 240 h, 1 uM, read-out: Inhibition of microvessel formation compared to control) was 5.1%, the inhibition at 100 µM ([2]; Rattus norvegicus, 240 h, 100 uM, read-out: Inhibition of microvessel formation compared to control) was 91.3% and the “Inhibition ratio (%) of ear edema” value ([3]; topical 5% in acetone (indomethacin 0.5 mg/ear), 4 hours after TPA) was 69.3%. For the same compound, the “Δ Ear thickness (um ± S.D)” value ([3]; topical 5% in acetone (indomethacin 0.5 mg/ear), 4 hours after TPA, TPA control 176 ± 35) was 54 ± 22 um and the “Relative potency among chalcone or its derivatives on ear edema” value ([3]; topical 5%, TPA-induced ear edema) was “greatest potency”.
